Measured values from patent US20060069132A1, “Azolecarboxamide herbicides” (priority 2004, published 2006).

Tests used:
barnyardgrass [1] = assay: Test A pre-/postemergence herbicide test; format: in vivo, Echinochloa crus-galli
Summary of the method: (§1)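 Sandy loam soil given preemergence directed spray; plants at 2 to 10 cm, one- to two-leaf stage, sprayed to runoff postemergence, compounds in non-phytotoxic solvent with surfactant. Injury rated visually versus untreated controls after about ten greenhouse days, 0 (no effect) to 100 (complete control); dash means not tested.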

large crabgrass [2] = assay: Test A pre-/postemergence herbicide test; format: in vivo, Digitaria sanguinalis
Summary of the method: as §1

giant foxtail [3] = assay: Test A pre-/postemergence herbicide test; format: in vivo, Setaria faberi
Summary of the method: as §1

morningglory [4] = assay: Test A pre-/postemergence herbicide test; format: in vivo, Ipomoea spp.
Summary of the method: as §1

redroot pigweed = assay: Test A pre-/postemergence herbicide test; format: in vivo, Amaranthus retroflexus
Summary of the method: as §1

velvetleaf [5] = assay: Test A pre-/postemergence herbicide test; format: in vivo, Abutilon theophrasti
Summary of the method: as §1

barnyardgrass [6] = assay: Test B pre-/postemergence herbicide test; format: in vivo, Echinochloa crus-galli; settings: for Barnyardgrass plant response rating: postemergence
Summary of the method: (§2)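 Evaluation is visual, comparing treated with control plants on a scale where 0 means no effect and 100 means full control. Treatments were preemergence, or postemergence on seedlings 2–18 cm tall, and held 13–15 days in the greenhouse.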

Surinam grass = assay: Test B pre-/postemergence herbicide test; format: in vivo, Urochloa decumbens; settings: for Surinam Grass plant response rating: postemergence
Summary of the method: (§3)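 Plants compared with untreated controls 13–15 days post-treatment and given a visual 0–100 injury score. Applications: preemergence to seeds; postemergence at 1- to 4-leaf (2–18 cm); paddy species flooded, 2-leaf stage. Vehicle non-phytotoxic, surfactant included.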

cocklebur = assay: Test B pre-/postemergence herbicide test; format: in vivo, Xanthium strumarium; settings: for Cocklebur plant response rating: postemergence
Summary of the method: as §2

corn = assay: Test B pre-/postemergence herbicide test; format: in vivo, Zea mays; settings: for Corn plant response rating: postemergence
Summary of the method: as §3

large crabgrass [7] = assay: Test B pre-/postemergence herbicide test; format: in vivo, Digitaria sanguinalis; settings: for Crabgrass, Large plant response rating: postemergence
Summary of the method: as §3

giant foxtail [8] = assay: Test B pre-/postemergence herbicide test; format: in vivo, Setaria faberi; settings: for Foxtail, Giant plant response rating: postemergence
Summary of the method: as §3

lambsquarters = assay: Test B pre-/postemergence herbicide test; format: in vivo, Chenopodium album; settings: for Lambsquarters plant response rating: postemergence
Summary of the method: as §3

morningglory [9] = assay: Test B pre-/postemergence herbicide test; format: in vivo, Ipomoea coccinea; settings: for Morningglory plant response rating: postemergence
Summary of the method: as §2

pigweed = assay: Test B pre-/postemergence herbicide test; format: in vivo, Amaranthus retroflexus; settings: for Pigweed plant response rating: postemergence
Summary of the method: as §3

rice [10] = assay: Test B pre-/postemergence herbicide test; format: in vivo, Oryza sativa; settings: 0 = no effect, 100 = complete control, preemergence
Summary of the method: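 Greenhouse pot assay with simultaneous preemergence (treated seed) and postemergence (2–18 cm seedlings) applications of surfactant-containing, non-phytotoxic solvent formulations. Response scored visually 13–15 days later on a 0–100 scale, 100 meaning complete control.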

velvetleaf [11] = assay: Test B pre-/postemergence herbicide test; format: in vivo, Abutilon theophrasti; settings: for Velvetleaf plant response rating: postemergence
Summary of the method: as §3

blackgrass = assay: Test B postemergence herbicide test; format: in vivo, Alopecurus myosuroides; settings: postemergence
Summary of the method: (§4)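 Each value is a visual 0–100 response rating taken against controls 13 to 15 days after treatment in the greenhouse. Plants received formulated chemical postemergence at the 1- to 4-leaf stage or, in flooded paddy, at the 2-leaf stage.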

wheat = assay: Test B postemergence herbicide test; format: in vivo, Triticum aestivum; set-up: key to Wheat plant response rating: 0 = no effect, 100 = complete control; settings: postemergence
Summary of the method: (§5)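 Postemergence plants were sprayed with formulated test chemicals at 2 to 18 cm height (1- to 4-leaf stage); paddy species were grown to the 2-leaf stage. After 13 to 15 days in a greenhouse, injury was rated visually against untreated controls on a 0–100 scale (0 = no effect, 100 = complete control).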

wild oat = assay: Test B postemergence herbicide test; format: in vivo, Avena fatua; settings: postemergence
Summary of the method: as §5

rice [12] = assay: Test B flooded paddy test; format: in vivo, Oryza sativa; settings: 1000 g ai/ha, scale 0 to 100 (0 no effect, 100 complete control)
Summary of the method: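 Formulated test chemicals went onto postemergence plants measuring 2 to 18 cm, at one to four leaves. For the paddy assay, species had reached two leaves. Scoring took place 13–15 days later by eye, relative to untreated plants, using 0 for no effect up to 100 for full control.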

[13] = test system: small flower umbrella sedge; assay: Test B flooded paddy test; format: in vivo, Cyperus difformis; settings: 1000 g ai/ha, scale 0 to 100 (0 no effect, 100 complete control)
Summary of the method: as §4

ducksalad = assay: Test B flooded paddy test; format: in vivo, Heteranthera limosa; settings: 1000 g ai/ha, scale 0 to 100 (0 no effect, 100 complete control)
Summary of the method: as §4

barnyardgrass [14] = assay: Test B flooded paddy test; format: in vivo, Echinochloa crus-galli; settings: 1000 g ai/ha, scale 0 to 100 (0 no effect, 100 complete control)
Summary of the method: as §4

[15] = Postemergence, 500 g ai/ha, 0 to 100 scale, 0 no effect, 100 complete control
[16] = Postemergence, 2000 g ai/ha, 0 to 100 scale, 0 no effect, 100 complete control
[17] = Preemergence, 2000 g ai/ha, visual rating, 0 to 100 scale (0 no effect, 100 complete control)
[18] = preemergence, 500 g ai/ha, visual injury, 0 to 100 scale (0 no effect, 100 complete control)
[19] = 125 g ai/ha, 0 = no effect, 100 = complete control, preemergence
[20] = 500 g ai/ha, visual rating, 0 = no effect, 100 = complete control, preemergence
[21] = 125 g ai/ha, visual rating, scale 0 (no effect) to 100 (complete control)
[22] = 500 g ai/ha, scale 0 to 100, 0 is no effect, 100 is complete control

In the case of `CCn1nc(C(C)(C)C)cc1C(=O)Nc1ccnc(C(=O)NCCF)c1` [Compound 284], the “Barnyardgrass plant response rating” value (barnyardgrass [1]; [15]) was 30, the “Plant response rating, Barnyardgrass” value (barnyardgrass [1]; [16]) was 60 and the “Barnyardgrass plant response rating” value (barnyardgrass [1]; [17]) was 85. For the same compound, the “Barnyardgrass plant response rating” value (barnyardgrass [1]; [18]) was 10, the “Crabgrass, Large plant response rating” value (large crabgrass [2]; [15]) was 20 and the “Plant response rating, Crabgrass, Large” value (large crabgrass [2]; [16]) was 20. For the same compound, the “Crabgrass, Large plant response rating” value (large crabgrass [2]; [17]) was 80, the “Crabgrass, Large plant response rating” value (large crabgrass [2]; [18]) was 15 and the “Foxtail, Giant plant response rating” value (giant foxtail [3]; [15]) was 20. For the same compound, the “Plant response rating, Foxtail, Giant” value (giant foxtail [3]; [16]) was 35, the “Foxtail, Giant plant response rating” value (giant foxtail [3]; [17]) was 55 and the “Foxtail, Giant plant response rating” value (giant foxtail [3]; [18]) was 20. For the same compound, the “Morningglory plant response rating” value (morningglory [4]; [15]) was 10, the “Plant response rating, Morningglory” value (morningglory [4]; [16]) was 15 and the “Morningglory plant response rating” value (morningglory [4]; [17]) was 5. For the same compound, the “Morningglory plant response rating” value (morningglory [4]; [18]) was 0, the “Pigweed plant response rating” value (redroot pigweed; [15]) was 95 and the “Plant response rating, Pigweed” value (redroot pigweed; [16]) was 100. For the same compound, the “Pigweed plant response rating” value (redroot pigweed; [17]) was 100, the “Pigweed plant response rating” value (redroot pigweed; [18]) was 85 and the “Velvetleaf plant response rating” value (velvetleaf [5]; [15]) was 30. For the same compound, the “Plant response rating, Velvetleaf” value (velvetleaf [5]; [16]) was 35, the “Velvetleaf plant response rating” value (velvetleaf [5]; [17]) was 40 and the “Velvetleaf plant response rating” value (velvetleaf [5]; [18]) was 10. The “Barnyardgrass plant response rating (0 to 100 scale)” value (barnyardgrass [6]; [19]) was 0, the “Plant response rating, Barnyardgrass” value (barnyardgrass [6]; [20]) was 80 and the “Barnyardgrass plant response rating” value (barnyardgrass [6]; [21]) was 0. For the same compound, the “Barnyardgrass plant response rating” value (barnyardgrass [6]; [22]) was 0, the “Surinam Grass plant response rating (0 to 100 scale)” value (Surinam grass; [19]) was 0 and the “Plant response rating, Surinam Grass” value (Surinam grass; [20]) was 10. For the same compound, the “Surinam Grass plant response rating” value (Surinam grass; [21]) was 0, the “Surinam Grass plant response rating” value (Surinam grass; [22]) was 20 and the “Cocklebur plant response rating (0 to 100 scale)” value (cocklebur; [19]) was 0. The “Plant response rating, Cocklebur” value (cocklebur; [20]) was 0, the “Cocklebur plant response rating” value (cocklebur; [21]) was 0 and the “Cocklebur plant response rating” value (cocklebur; [22]) was 0. For the same compound, the “Corn plant response rating (0 to 100 scale)” value (corn; [19]) was 0, the “Plant response rating, Corn” value (corn; [20]) was 0 and the “Corn plant response rating” value (corn; [21]) was 0. The “Corn plant response rating” value (corn; [22]) was 10, the “Crabgrass, Large plant response rating (0 to 100 scale)” value (large crabgrass [7]; [19]) was 0 and the “Plant response rating, Crabgrass, Large” value (large crabgrass [7]; [20]) was 90. The “Crabgrass, Large plant response rating” value (large crabgrass [7]; [21]) was 0, the “Crabgrass, Large plant response rating” value (large crabgrass [7]; [22]) was 10 and the “Foxtail, Giant plant response rating (0 to 100 scale)” value (giant foxtail [8]; [19]) was 0. The “Plant response rating, Foxtail, Giant” value (giant foxtail [8]; [20]) was 10, the “Foxtail, Giant plant response rating” value (giant foxtail [8]; [21]) was 0 and the “Foxtail, Giant plant response rating” value (giant foxtail [8]; [22]) was 0. For the same compound, the “Lambsquarters plant response rating (0 to 100 scale)” value (lambsquarters; [19]) was 90, the “Plant response rating, Lambsquarters” value (lambsquarters; [20]) was 100 and the “Lambsquarters plant response rating” value (lambsquarters; [21]) was 50. The “Lambsquarters plant response rating” value (lambsquarters; [22]) was 50, the “Morningglory plant response rating (0 to 100 scale)” value (morningglory [9]; [19]) was 0 and the “Plant response rating, Morningglory” value (morningglory [9]; [20]) was 0. The “Morningglory plant response rating” value (morningglory [9]; [21]) was 0, the “Morningglory plant response rating” value (morningglory [9]; [22]) was 0 and the “Pigweed plant response rating (0 to 100 scale)” value (pigweed; [19]) was 90. For the same compound, the “Plant response rating, Pigweed” value (pigweed; [20]) was 100, the “Pigweed plant response rating” value (pigweed; [21]) was 60 and the “Pigweed plant response rating” value (pigweed; [22]) was 70. For the same compound, the “Rice plant response rating (0 to 100 scale)” value (rice [10]; 125 g ai/ha) was 0, the “Plant response rating, Rice” value (rice [10]; 500 g ai/ha, visual rating) was 20 and the “Velvetleaf plant response rating (0 to 100 scale)” value (velvetleaf [11]; [19]) was 0. The “Plant response rating, Velvetleaf” value (velvetleaf [11]; [20]) was 60, the “Velvetleaf plant response rating” value (velvetleaf [11]; [21]) was 0 and the “Velvetleaf plant response rating” value (velvetleaf [11]; [22]) was 0. For the same compound, the “Blackgrass plant response rating” value (blackgrass; [21]) was 20, the “Blackgrass plant response rating” value (blackgrass; [22]) was 40 and the “Wheat plant response rating” value (wheat; [21]) was 20. The “Wheat plant response rating” value (wheat; [22]) was 30, the “Oat, Wild plant response rating” value (wild oat; [21]) was 10 and the “Oat, Wild plant response rating” value (wild oat; [22]) was 30. For the same compound, the “Rice plant response rating” value (rice [12]) was 10, the “Sedge, Umbrella plant response rating” value [13] was 0 and the “Ducksalad plant response rating” value (ducksalad) was 70. For the same compound, the “Barnyardgrass plant response rating” value (barnyardgrass [14]) was 30.
